This assay deals with BDF1 mice, M5076 sarcoma s.c., survival/tumor T/C. Nature of the assay: NCI In Vivo Anticancer Drug Screen. Data for tumor model Sarcoma M5076 (subcutaneous) in B6D2F1 (BDF1) mice. On the procedure: The antitumor activity of compounds was measured in mice bearing transplantable tumors. Survival or tumor size were measured and the results are expressed as the measurement made in the treated group (T) divided by the measurement made in the vehicle treated control group (C). The tumor model used in this assay is Sarcoma M5076 (subcutaneous) in B6D2F1 (BDF1) mice

[1] abbreviates: endpoint: mean tumor weight, dose: 12.5 mg/kg/injection, schedule: Q02DX011 (ip), vehicle: saline, higher = larger tumour.
[2] abbreviates: endpoint: mean tumor weight, dose: 25.0 mg/kg/injection, schedule: Q02DX011 (ip), vehicle: saline, higher = larger tumour.
The mark [3] stands for this setting: endpoint: mean tumor weight, dose: 50.0 mg/kg/injection, schedule: Q02DX011 (ip), vehicle: saline, higher = larger tumour.
The mark [4] stands for this setting: endpoint: median survival time, dose: 50.0 mg/kg/injection, schedule: Q01DX009 (ip), vehicle: saline with Tween-80, higher = longer survival.
Where [5] appears, read: endpoint: median survival time, dose: 100.0 mg/kg/injection, schedule: Q01DX009 (ip), vehicle: saline with Tween-80, higher = longer survival.
Setting [6] is: endpoint: median survival time, dose: 200.0 mg/kg/injection, schedule: Q01DX009 (ip), vehicle: saline with Tween-80, higher = longer survival.
[7] abbreviates: endpoint: median tumor weight (est.), dose: 50.0 mg/kg/injection, schedule: Q01DX009 (ip), vehicle: saline with Tween-80, higher = larger tumour.
The mark [8] stands for this setting: endpoint: median tumor weight (est.), dose: 200.0 mg/kg/injection, schedule: Q01DX009 (ip), vehicle: saline with Tween-80, higher = larger tumour.

Several values for one entry are separate records, joined by “and”; a condition that tells them apart may be missing. Identical values can stand only once. Records with an inconclusive call do not appear.

As to `CN(N=O)C(=O)N[C@@H](C=O)[C@@H](O)[C@H](O)[C@H](O)CO`, the T/C (endpoint: mean tumor weight, dose: 9.38 mg/kg/injection, schedule: Q02DX011 (ip), vehicle: other, higher = larger tumour) is 64 % of control; the T/C (endpoint: mean tumor weight, dose: 18.75 mg/kg/injection, schedule: Q02DX011 (ip), vehicle: other, higher = larger tumour) was 37 % of control and 56 % of control; the T/C (endpoint: mean tumor weight, dose: 37.5 mg/kg/injection, schedule: Q02DX011 (ip), vehicle: other, higher = larger tumour) was 11 % of control and 15 % of control; the T/C (endpoint: mean tumor weight, dose: 75.0 mg/kg/injection, schedule: Q02DX011 (ip), vehicle: other, higher = larger tumour) is 1 % of control; the T/C (endpoint: median tumor weight (est.), dose: 9.38 mg/kg/injection, schedule: Q02DX011 (ip), vehicle: other, higher = larger tumour) was 45 % of control; the T/C (endpoint: median tumor weight (est.), dose: 18.75 mg/kg/injection, schedule: Q02DX011 (ip), vehicle: other, higher = larger tumour) is 39 % of control and 60 % of control. Besides, the T/C (endpoint: median tumor weight (est.), dose: 37.5 mg/kg/injection, schedule: Q02DX011 (ip), vehicle: other, higher = larger tumour) is 10 % of control and 34 % of control.
Regarding `Cc1c2ccncc2c(C)c2c1[nH]c1ccccc12`, the T/C is 100 % of control under setting [1]; 55 % of control (endpoint: mean tumor weight, dose: 12.5 mg/kg/injection, schedule: Q02DX011 (ip), vehicle: water, higher = larger tumour); 65 % of control under setting [2]; 36 % of control under setting [3]; 355 % of control (endpoint: median tumor weight (est.), dose: 12.5 mg/kg/injection, schedule: Q02DX011 (ip), vehicle: saline, higher = larger tumour); 47 % of control (endpoint: median tumor weight (est.), dose: 12.5 mg/kg/injection, schedule: Q02DX011 (ip), vehicle: water, higher = larger tumour). Further, the T/C was 314 % of control (endpoint: median tumor weight (est.), dose: 25.0 mg/kg/injection, schedule: Q02DX011 (ip), vehicle: saline, higher = larger tumour) and 98 % of control (endpoint: median tumor weight (est.), dose: 50.0 mg/kg/injection, schedule: Q02DX011 (ip), vehicle: saline, higher = larger tumour).
Turning to `C[C@]12C=CC(=O)C=C1CC[C@@H]1[C@@H]2C(=O)C[C@@]2(C)[C@H]1CC[C@]2(O)C(=O)CO`, the T/C under setting [1] is 82 % of control, the T/C under setting [2] was 52 % of control and the T/C under setting [3] was 59 % of control.
Take `O=c1[nH]cc(F)c(=O)[nH]1`: the T/C (endpoint: median survival time, dose: 6.25 mg/kg/injection, schedule: Q04DX006 (ip), vehicle: saline, higher = longer survival) is 105 % of control; the T/C (endpoint: median survival time, dose: 12.5 mg/kg/injection, schedule: Q02DX033 (ip), vehicle: saline, higher = longer survival) was 101 % of control; the T/C (endpoint: median survival time, dose: 12.5 mg/kg/injection, schedule: Q04DX006 (ip), vehicle: saline, higher = longer survival) is 100 % of control; the T/C (endpoint: median survival time, dose: 25.0 mg/kg/injection, schedule: Q02DX033 (ip), vehicle: saline, higher = longer survival) is 105 % of control; the T/C (endpoint: median survival time, dose: 25.0 mg/kg/injection, schedule: Q04DX006 (ip), vehicle: saline, higher = longer survival) is 108 % of control; the T/C (endpoint: median survival time, dose: 50.0 mg/kg/injection, schedule: Q04DX006 (ip), vehicle: saline, higher = longer survival) was 105 % of control.
For the compound `Nc1nc([Se])c2ncn(C3OC(CO)C(O)C3O)c2n1` (configuration not stated), the T/C (endpoint: median survival time, dose: 4.0 mg/kg/injection, schedule: Q01DX009 (ip), vehicle: saline, higher = longer survival) is 108 % of control; the T/C (endpoint: median survival time, dose: 8.0 mg/kg/injection, schedule: Q01DX009 (ip), vehicle: saline, higher = longer survival) was 118 % of control; the T/C (endpoint: median survival time, dose: 8.0 mg/kg/injection, schedule: Q01DX009 (ip), vehicle: suspension in saline, higher = longer survival) is 118 % of control; the T/C (endpoint: median survival time, dose: 16.0 mg/kg/injection, schedule: Q01DX009 (ip), vehicle: saline, higher = longer survival) is 119 % of control; the T/C (endpoint: median survival time, dose: 16.0 mg/kg/injection, schedule: Q01DX009 (ip), vehicle: suspension in saline, higher = longer survival) was 119 % of control; the T/C (endpoint: median tumor weight (est.), dose: 4.0 mg/kg/injection, schedule: Q01DX009 (ip), vehicle: saline, higher = larger tumour) was 64 % of control. Also, the T/C is 33 % of control (endpoint: median tumor weight (est.), dose: 8.0 mg/kg/injection, schedule: Q01DX009 (ip), vehicle: saline, higher = larger tumour); 24 % of control (endpoint: median tumor weight (est.), dose: 8.0 mg/kg/injection, schedule: Q01DX009 (ip), vehicle: suspension in saline, higher = larger tumour); 8 % of control (endpoint: median tumor weight (est.), dose: 16.0 mg/kg/injection, schedule: Q01DX009 (ip), vehicle: saline, higher = larger tumour); 6 % of control (endpoint: median tumor weight (est.), dose: 16.0 mg/kg/injection, schedule: Q01DX009 (ip), vehicle: suspension in saline, higher = larger tumour).
Consider `Cc1[nH]c(=O)[nH]c(=O)c1N(CCF)CCCl`, for which the T/C runs as follows: (endpoint: median survival time, dose: 4.0 mg/kg/injection, schedule: Q01DX009 (ip), vehicle: saline with Tween-80, higher = longer survival) 104 % of control; (endpoint: median survival time, dose: 8.0 mg/kg/injection, schedule: Q01DX009 (ip), vehicle: saline with Tween-80, higher = longer survival) 120 % of control; (endpoint: median tumor weight (est.), dose: 4.0 mg/kg/injection, schedule: Q01DX009 (ip), vehicle: saline with Tween-80, higher = larger tumour) 101 % of control; (endpoint: median tumor weight (est.), dose: 8.0 mg/kg/injection, schedule: Q01DX009 (ip), vehicle: saline with Tween-80, higher = larger tumour) 47 % of control and 57 % of control; (endpoint: median tumor weight (est.), dose: 16.0 mg/kg/injection, schedule: Q01DX009 (ip), vehicle: saline with Tween-80, higher = larger tumour) 8 % of control and 17 % of control.
As to `COc1ccc(Cl)cc1NC(=O)NNC(=O)C(=O)Nc1ccc(F)cc1`, the T/C is 106 % of control under setting [4]; 106 % of control under setting [5]; 113 % of control under setting [6]; 87 % of control under setting [7]; 115 % of control under setting [8].
On to `Nc1ncn(C2OC(CO)C(O)C2O)c(=O)n1` (configuration not stated), for which the T/C is, setting by setting: (endpoint: median survival time, dose: 0.6 mg/kg/injection, schedule: Q04DX009 (ip), vehicle: saline, higher = longer survival) 106 % of control; (endpoint: median survival time, dose: 1.2 mg/kg/injection, schedule: Q04DX009 (ip), vehicle: saline, higher = longer survival) 112 % of control; (endpoint: median survival time, dose: 2.4 mg/kg/injection, schedule: Q04DX009 (ip), vehicle: saline, higher = longer survival) 113 % of control; (endpoint: median survival time, dose: 4.8 mg/kg/injection, schedule: Q04DX009 (ip), vehicle: saline, higher = longer survival) 111 % of control.
With `O=C(O)CC(NC(=O)CP(=O)(O)O)C(=O)O` (configuration not stated), the T/C reads like this: (endpoint: median survival time, dose: 38.9 mg/kg/injection, schedule: Q01DX004 (ip), vehicle: saline, higher = longer survival) 109 % of control; (endpoint: median survival time, dose: 64.8 mg/kg/injection, schedule: Q01DX004 (ip), vehicle: saline, higher = longer survival) 114 % of control; (endpoint: median survival time, dose: 75.0 mg/kg/injection, schedule: Q02DX010 (ip), vehicle: saline, higher = longer survival) 176 % of control; (endpoint: median survival time, dose: 150.0 mg/kg/injection, schedule: Q02DX010 (ip), vehicle: saline, higher = longer survival) 169 % of control; (endpoint: median survival time, dose: 180.0 mg/kg/injection, schedule: Q01DX004 (ip), vehicle: saline, higher = longer survival) 124 % of control; (endpoint: median survival time, dose: 300.0 mg/kg/injection, schedule: Q02DX010 (ip), vehicle: saline, higher = longer survival) 181 % of control.
As for `C=C1C(O)C2OC3(CCC(/C=C/C(C)C4CC5(C)SC5C5(OC(CC(C)(O)C(=O)O)CCC5O)O4)O3)CCC2OC1C(O)CC(C)C1OC2(CCCCO2)CCC1C` (configuration not stated), the T/C (endpoint: median survival time, dose: 1.25 micrograms/kg/injection, schedule: Q01DX009 (ip), vehicle: saline + alcohol, higher = longer survival) was 101 % of control; the T/C (endpoint: median survival time, dose: 2.5 micrograms/kg/injection, schedule: Q01DX009 (ip), vehicle: saline + alcohol, higher = longer survival) was 96 % of control; the T/C (endpoint: median survival time, dose: 5.0 micrograms/kg/injection, schedule: Q01DX009 (ip), vehicle: saline + alcohol, higher = longer survival) is 108 % of control; the T/C (endpoint: median survival time, dose: 10.0 micrograms/kg/injection, schedule: Q01DX009 (ip), vehicle: saline + alcohol, higher = longer survival) is 96 % of control; the T/C (endpoint: median tumor weight (est.), dose: 1.25 micrograms/kg/injection, schedule: Q01DX009 (ip), vehicle: saline + alcohol, higher = larger tumour) is 107 % of control; the T/C (endpoint: median tumor weight (est.), dose: 2.5 micrograms/kg/injection, schedule: Q01DX009 (ip), vehicle: saline + alcohol, higher = larger tumour) was 77 % of control. For the same compound, the T/C (endpoint: median tumor weight (est.), dose: 5.0 micrograms/kg/injection, schedule: Q01DX009 (ip), vehicle: saline + alcohol, higher = larger tumour) was 92 % of control.
Regarding `COC1CC23OC2(C1)C1C=CC3N(C(=O)OCC(Cl)(Cl)Cl)N1C(=O)OCC(Cl)(Cl)Cl` (configuration not stated), the T/C under setting [4] was 100 % of control and 94 % of control; the T/C under setting [5] was 102 % of control and 89 % of control; the T/C under setting [6] is 98 % of control and 110 % of control; the T/C under setting [7] is 111 % of control and 93 % of control; the T/C (endpoint: median tumor weight (est.), dose: 100.0 mg/kg/injection, schedule: Q01DX009 (ip), vehicle: saline with Tween-80, higher = larger tumour) was 66 % of control and 77 % of control; the T/C under setting [8] is 90 % of control.
